From US8648116B2, “Derivatives of N-(arylamino) sulfonamides including polymorphs as inhibitors of MEK as well as compositions, methods of use and methods for preparing the same” (Ardea Biosciences, Inc., priority 2005, dated 2014)
Marks after values point to notes of the source that are not given here.

Assays:
A431 epidermoid tumors = experiment: Anti-tumor xenograft activity, TGI and TGD (Example 94); type: in vivo, nu/nu mice
Description: (§1) Human tumors were implanted in nu/nu mice. Compound A was administered orally for 14 days once tumors were approximately 100 mm^3 in size. Tumor growth inhibition (TGI) was determined after 14 days of treatment as the reduction in the size of tumors in treated groups versus vehicle controls. The time to endpoint (TTE) was calculated as the time for the tumor to reach the specified endpoint volume or the last day of the study, whichever came first. Treatment outcome was determined from percent tumor growth delay (% TGD), defined as the percent increase in median TTE of treated versus vehicle-treated control mice. Animals were also monitored for regression responses. Levels of pERK in tumors and brain were determined by Western blots and correlated with plasma levels of Compound A for the pharmacodynamic/pharmacokinetic study. A number of tumor models were evaluated with different doses and dosing regimens. […] The effect of different dosing regimens was evaluated in A375 xenografts.
(§2) Female nu/nu mice were implanted with A375 Melanoma, Colo205 Colon Tumor, A431 Epidermoid Tumor or HT-29 Colon Tumor cells, which were allowed to grow to 100-200 mm^3. Compound A or vehicle was administered orally (25 mg/kg, 50 mg/kg or 100 mg/kg), once a day, for 14 days.
(§3) Tumor Growth Inhibition for the groups treated with 25 mg/kg Compound A were calculated for the indicated tumor xenografts. Tumor Growth Inhibition was measured at the end of once daily dosing for 14 days and calculated according to: […]

[1] = test system: Colo205 colon cancer tumors; experiment: as above; type: in vivo, nu/nu mice
Description: as §1, §2, §3

COc1cc(F)c(F)c(Nc2ccc(I)cc2F)c1NS(=O)(=O)C1(C[C@H](O)CO)CC1 [Compound A]
% TGI (A431 epidermoid tumors; A431 Epidermoid xenograft, 25 mg/kg QD oral, 14 days): 67%
% TGD, significance (A431 epidermoid tumors; A431 epidermoid tumors, 25 or 50 mg/kg once daily (QD)): statistically significant
% TGI ([1]; Colo205 Colon xenograft, 25 mg/kg QD oral, 14 days, range from 2 separate studies): 70-123** %
% TGD, significance ([1]; Colo205 colon cancer tumors, 25 or 50 mg/kg once daily (QD)): statistically significant
